Test results from PMC8298264, “Function of cofactor Akirin2 in the regulation of gene expression in model human neutrophil-like HL60 cells” (Bioscience Reports, 2021).

System: human HL60 cells
Assay: SWATH-MS proteomics, differential protein representation, akirin2 KO vs WT HL60 cells
Assay type: cell-based
Method: Total proteins were extracted from WT and akirin2 KO HL60 cells using the AllPrep DNA/RNA/Protein Mini Kit (Qiagen) and protein concentration was determined using the BCA Protein Assay with BSA (Sigma–Aldrich) as standard. Protein extracts (150 µg per sample, n=3 biological replicates) from each WT and KO cells were trypsin digested using the FASP Protein Digestion Kit (Expedeon Ltd., Abcam, Cambridge, U.K.) and sequencing grade trypsin (Promega, Madison, WI, U.S.A.) following manufacturer’s recommendations. The resulting peptides were finally desalted on to OMIX Pipette tips C18 (Agilent Technologies, Santa Clara, CA, U.S.A.), dried down and stored at −20 °C until mass spectrometry analysis. […] Three micrograms of each protein digest from the three biological replicates of WT and akirin2 KO HL60 cells were used for the generation of the reference spectral ion library as part of the SWATH-MS analysis.
Peptides were eluted in a 120-min gradient from 5 to 30% solvent B in solvent A followed by 15-min gradient from 30 to 60% solvent B in solvent A (solvent A: 0.1% formic acid in water, solvent B: 0.1% formic acid in acetonitrile) and directly injected into the mass spectrometer for analysis. For IDA experiments, the mass spectrometer was set to scanning full spectra (350–1400 m/z) using 250 ms accumulation time per spectrum, followed by up to 50 MS/MS scans (100–1500 m/z). Candidate ions with a charge state between +2 and +5 counts per second above a minimum threshold of 100 were isolated for fragmentation. One MS/MS spectrum was collected for 100 ms, before adding those precursor ions to the exclusion list for 15 s (mass spectrometer operated by Analyst TF 1.6, AB Sciex). Dynamic background subtraction was turned off. MS/MS analyses were recorded in high-sensitivity mode with rolling collision energy on and a collision energy spread of 5. For SWATH quantitative analysis, six independent samples (three replicates from WT and akirin2 KO HL60 cells, 5 µg each) were subjected to the cyclic DIA of mass spectra using the SWATH variable windows calculator (V 1.0, AB Sciex) and the SWATH acquisition method editor (AB Sciex), similar to established methods. […] For these experiments, a 50-ms survey scan (350–1400 m/z) was acquired at the beginning of each cycle, and SWATH–MS/MS spectra were collected from 100–1500 m/z for 70 ms at high-sensitivity mode, resulting in a cycle time of 3.6 s. Collision energy for each window was determined according to the calculation for a charge +2 ion-centered upon the window with a collision energy spread of 15. To create a spectral library of all the detectable peptides in the samples, the IDA MS raw files were combined and subjected to database search in unison using ProteinPilot software v. 5.0.1 (AB Sciex) with the Paragon algorithm. […] The detected protein threshold was set at 0.05. An independent false discovery rate (FDR) analysis, using the target–decoy approach provided by Protein Pilot (AB Sciex; https://sciex.com/products/software/proteinpilot-software), was used to assess the quality of identifications. Positive identifications were considered when identified proteins reached 1% of global FDR. […] Global normalization was performed according to the Total Area Sums (TAS) of all detected proteins in the samples. […] Heatmaps were prepared using the Heatmapper (http://www.heatmapper.ca/expression/) with average linkage and Euclidean distance measurement method.

[1] = SWATH-MS, akirin2 KO vs WT HL60 cells, over-represented in KO
[2] = akirin2 KO vs WT HL60 cells, sheet "Over-represented in KO"
[3] = SWATH-MS, akirin2 KO vs WT HL60 cells, under-represented in KO
[4] = KO vs WT, akirin2 KO vs WT HL60 cells, sheet "Under-represented in KO"
[5] = akirin2 KO vs WT HL60 cells, sheet "Under-represented in KO"
[6] = SWATH-MS, akirin2 KO vs WT HL60 cells, sheet "Under-represented in KO"
[7] = KO vs WT HL60 cells, sheet "Under-represented in KO"
[8] = Over-represented in KO, KO vs WT HL60 cells

CD44 antigen
Fold Change [1]: 2.131 | Log (Fold Change) [1]: 0.3287

Cathepsin D
Fold Change [1]: 2.358 | Log (Fold Change) [1]: 0.3725

Chitinase-3-like protein 1
Fold Change [1]: 1.904 | Log (Fold Change) [1]: 0.2797

Deoxynucleoside triphosphate triphosphohydrolase SAMHD1
Fold Change [1]: 1.851 | Log (Fold Change) [1]: 0.2674

Eosinophil peroxidase
Fold Change [1]: 5.162 | Log (Fold Change) [1]: 0.7128

Galectin-1
Fold Change [1]: 1.707 | Log (Fold Change) [1]: 0.2322

Galectin-10
Fold Change [1]: 4.451 | Log (Fold Change) [1]: 0.6485

Heat shock 70 kDa protein 1B
Fold Change [1]: 1.868 | Log (Fold Change) [1]: 0.2713

Transferrin receptor protein 1
Fold Change [1]: 3.145 | Log (Fold Change) [1]: 0.4976

Vimentin
Fold Change [1]: 3.958 | Log (Fold Change) [1]: 0.5975

sp¦E9PAV3¦NACAM_HUMAN
Fold Change [2]: 1.243 | Log (Fold Change) [2]: 0.09445

sp¦E9PRG8¦CK098_HUMAN
Fold Change [2]: 1.224 | Log (Fold Change) [2]: 0.0879

sp¦O00148¦DX39A_HUMAN
Fold Change [3]: 0.7315 | Log (Fold Change) [3]: -0.1358

sp¦O00231¦PSD11_HUMAN
Fold Change [2]: 1.117 | Log (Fold Change) [2]: 0.04806

sp¦O00264¦PGRC1_HUMAN
Fold Change [4]: 0.6168 | Log (Fold Change) [4]: -0.2099

sp¦O14579¦COPE_HUMAN
Fold Change [2]: 1.2285 | Log (Fold Change) [2]: 0.08937

sp¦O43148¦MCES_HUMAN
Fold Change [5]: 0.671 | Log (Fold Change) [5]: -0.1733

sp¦O43447¦PPIH_HUMAN
Fold Change [2]: 1.22 | Log (Fold Change) [2]: 0.08634

sp¦O43681¦GET3_HUMAN
Fold Change [6]: 0.7665 | Log (Fold Change) [6]: -0.1155

sp¦O43813¦LANC1_HUMAN
Fold Change [3]: 0.7366 | Log (Fold Change) [3]: -0.1328

sp¦O75874¦IDHC_HUMAN
Fold Change [1]: 1.681 | Log (Fold Change) [1]: 0.2255

sp¦O94804¦STK10_HUMAN
Fold Change [7]: 0.5498 | Log (Fold Change) [7]: -0.2598

sp¦O95758¦PTBP3_HUMAN
Fold Change [3]: 0.7281 | Log (Fold Change) [3]: -0.1378

sp¦P0CG38¦POTEI_HUMAN
Fold Change [6]: 0.7517 | Log (Fold Change) [6]: -0.1239

sp¦P00367¦DHE3_HUMAN
Fold Change [5]: 0.6801 | Log (Fold Change) [5]: -0.1674

sp¦P02792¦FRIL_HUMAN
Fold Change [5]: 0.2798 | Log (Fold Change) [5]: -0.5531

sp¦P04406¦G3P_HUMAN
Fold Change [8]: 1.369 | Log (Fold Change) [8]: 0.1364

sp¦P05556¦ITB1_HUMAN
Fold Change [5]: 0.257 | Log (Fold Change) [5]: -0.5901

sp¦P07237¦PDIA1_HUMAN
Fold Change [8]: 1.346 | Log (Fold Change) [8]: 0.1292

sp¦P08238¦HS90B_HUMAN
Fold Change [2]: 1.209 | Log (Fold Change) [2]: 0.08231

sp¦P08621¦RU17_HUMAN
Fold Change [5]: 0.6829 | Log (Fold Change) [5]: -0.1657

sp¦P09622¦DLDH_HUMAN
Fold Change [7]: 0.516 | Log (Fold Change) [7]: -0.2873

sp¦P10155¦RO60_HUMAN
Fold Change [6]: 0.7678 | Log (Fold Change) [6]: -0.1147

sp¦P11142¦HSP7C_HUMAN
Fold Change [1]: 1.579 | Log (Fold Change) [1]: 0.1983

sp¦P12268¦IMDH2_HUMAN
Fold Change [3]: 0.7306 | Log (Fold Change) [3]: -0.1363

sp¦P12270¦TPR_HUMAN
Fold Change [5]: 0.6414 | Log (Fold Change) [5]: -0.1929

sp¦P13861¦KAP2_HUMAN
Fold Change [2]: 1.201 | Log (Fold Change) [2]: 0.07946

sp¦P14618¦KPYM_HUMAN
Fold Change [1]: 1.553 | Log (Fold Change) [1]: 0.1913

sp¦P15531¦NDKA_HUMAN
Fold Change [2]: 1.204 | Log (Fold Change) [2]: 0.08072

sp¦P23284¦PPIB_HUMAN
Fold Change [8]: 1.275 | Log (Fold Change) [8]: 0.1054

sp¦P25786¦PSA1_HUMAN
Fold Change [8]: 1.271 | Log (Fold Change) [8]: 0.1042

sp¦P28070¦PSB4_HUMAN
Fold Change [6]: 0.7608 | Log (Fold Change) [6]: -0.1188

sp¦P29350¦PTN6_HUMAN
Fold Change [3]: 0.7017 | Log (Fold Change) [3]: -0.1538

sp¦P31040¦SDHA_HUMAN
Fold Change [7]: 0.5299 | Log (Fold Change) [7]: -0.2758

sp¦P31689¦DNJA1_HUMAN
Fold Change [8]: 1.309 | Log (Fold Change) [8]: 0.117

sp¦P35250¦RFC2_HUMAN
Fold Change [6]: 0.7882 | Log (Fold Change) [6]: -0.1034

sp¦P35579¦MYH9_HUMAN
Fold Change [5]: 0.3518 | Log (Fold Change) [5]: -0.4538

sp¦P36404¦ARL2_HUMAN
Fold Change [3]: 0.6935 | Log (Fold Change) [3]: -0.1589

sp¦P38646¦GRP75_HUMAN
Fold Change [3]: 0.7142 | Log (Fold Change) [3]: -0.1462

sp¦P40937¦RFC5_HUMAN
Fold Change [7]: 0.4492 | Log (Fold Change) [7]: -0.3475

sp¦P46013¦KI67_HUMAN
Fold Change [2]: 1.204 | Log (Fold Change) [2]: 0.08052

sp¦P49137¦MAPK2_HUMAN
Fold Change [8]: 1.268 | Log (Fold Change) [8]: 0.1031

sp¦P53007¦TXTP_HUMAN
Fold Change [5]: 0.3964 | Log (Fold Change) [5]: -0.4018

sp¦P54709¦AT1B3_HUMAN
Fold Change [3]: 0.7448 | Log (Fold Change) [3]: -0.128

sp¦P55072¦TERA_HUMAN
Fold Change [2]: 1.115 | Log (Fold Change) [2]: 0.04741

sp¦P55809¦SCOT1_HUMAN
Fold Change [5]: 0.6768 | Log (Fold Change) [5]: -0.1696

sp¦P56545¦CTBP2_HUMAN
Fold Change [5]: 0.655 | Log (Fold Change) [5]: -0.1838

sp¦P60953¦CDC42_HUMAN
Fold Change [3]: 0.7034 | Log (Fold Change) [3]: -0.1528

sp¦P61604¦CH10_HUMAN
Fold Change [3]: 0.7263 | Log (Fold Change) [3]: -0.1389

sp¦P78527¦PRKDC_HUMAN
Fold Change [5]: 0.4323 | Log (Fold Change) [5]: -0.3642

sp¦P84077¦ARF1_HUMAN
Fold Change [5]: 0.682 | Log (Fold Change) [5]: -0.1662

sp¦Q5T4S7¦UBR4_HUMAN
Fold Change [5]: 0.241 | Log (Fold Change) [5]: -0.6179

sp¦Q6P2Q9¦PRP8_HUMAN
Fold Change [3]: 0.7423 | Log (Fold Change) [3]: -0.1294

sp¦Q7Z6Z7¦HUWE1_HUMAN
Fold Change [7]: 0.5255 | Log (Fold Change) [7]: -0.2794

sp¦Q8NE71¦ABCF1_HUMAN
Fold Change [4]: 0.6253 | Log (Fold Change) [4]: -0.2039

sp¦Q8NF50¦DOCK8_HUMAN
Fold Change [5]: 0.4042 | Log (Fold Change) [5]: -0.3934

sp¦Q9BRF8¦CPPED_HUMAN
Fold Change [4]: 0.571 | Log (Fold Change) [4]: -0.2434

sp¦Q9H0U4¦RAB1B_HUMAN
Fold Change [3]: 0.704 | Log (Fold Change) [3]: -0.1524

sp¦Q9NR31¦SAR1A_HUMAN
Fold Change [5]: 0.4316 | Log (Fold Change) [5]: -0.3649

sp¦Q9P287¦BCCIP_HUMAN
Fold Change [8]: 1.299 | Log (Fold Change) [8]: 0.1134

sp¦Q9UNS2¦CSN3_HUMAN
Fold Change [3]: 0.6926 | Log (Fold Change) [3]: -0.1595

sp¦Q9Y4W6¦AFG32_HUMAN
Fold Change [4]: 0.6186 | Log (Fold Change) [4]: -0.2086

sp¦Q9Y5B9¦SP16H_HUMAN
Fold Change [3]: 0.7335 | Log (Fold Change) [3]: -0.1346

sp¦Q9Y266¦NUDC_HUMAN
Fold Change [8]: 1.364 | Log (Fold Change) [8]: 0.135

sp¦Q9Y490¦TLN1_HUMAN
Fold Change [8]: 1.355 | Log (Fold Change) [8]: 0.1319

sp¦Q86UX7¦URP2_HUMAN
Fold Change [6]: 0.7476 | Log (Fold Change) [6]: -0.1263

sp¦Q96A72¦MGN2_HUMAN
Fold Change [5]: 0.6271 | Log (Fold Change) [5]: -0.2026

sp¦Q01469¦FABP5_HUMAN
Fold Change [1]: 1.478 | Log (Fold Change) [1]: 0.1698
